Experiments:
B16 mouse melanoma cells = test: Inhibition of melanin production, B16 melanoma cell assay; assay type: cell-based; conditions: 4 days, alpha MSH, normalized to cell viability
Description: The effects of various test compounds on melanin levels were determined by performing assays using B16 melanoma cells. These cells are known to constitutively produce melanin and are a commonly utilized and accepted model system for monitoring the inhibition of melanin synthesis. The B16 mouse melanoma cells were seeded (ATCC, cat. #: CRL-6475) into 96-well tissue culture-treated plates (BD Falcon) and treated with test actives or controls in phenol red free DMEM (Mediatech; cat. #: 17-205-CV) with 2 nanogram/ml of alpha MSH (Fluka; cat #:63605). The cells were examined for their ability to modulate pigment formation. […] Tests were performed in 6 replicates each. Following the treatment period (4 days), the level of pigment produced or melanin synthesized was quantified by reading the absorbance at 540 nm using a standard microplate reader (Tecan Group Ltd.).
After quantifying the amount of melanin, cell viability was determined using the MTT conversion method. The MTT conversion method measures the reduction of the MTT dye from a yellow colored, water-soluble, tetrazolium salt to a bluish-purple colored insoluble formazan precipitate by NAD(P)H-dependent microsomal dehydrogenase enzymes, which only function in viable cells. The intensity of the blue color is indicative of cell viability. After quantifying the amount of melanin pigment produced, the cells were exposed to MTT dye solution (1 mg/ml) for two to three hours. Formazan material was solubilized with reagent alcohol (95% ethanol: 5% isopropanol) and shaken on an orbital shaker for 15-30 minutes. MTT dye uptake and conversion by viable cells were determined by measuring the extracted formazan at 570 nm using a microplate reader. Total pigmentation was calculated, normalized to cell viability values and expressed as the average percent change in melanin activity relative to control of the six experiments performed.
The assay data in Table 2 uses the following scale: 0: <10% decrease; +: between […] decrease; ++: 31-50% decrease; +++: between 51-70% decrease; ++++: >71% decrease; C=cytotoxic

[1] = test system: MELANODERM (MEL-300-B) human skin model; test: 3D skin equivalent tissue pigmentation assay (MELANODERM); assay type: cell-based; conditions: topical, tissues collected Day 11
Description: The effect of the tyrosinase inhibitors on melanin levels was investigated using a MELANODERM™ (MEL-300-B, MatTek Corp., Ashland, Mass.) human skin model. MELANODERM™ is a viable reconstituted three-dimensional human skin equivalent containing melanocytes derived from African-American donors. Tissues were maintained in culture medium EPI-100-NMM-113 at 37° C. as recommended by the manufacturer.
10 μl of the solution was applied topically to the MELANODERM™ tissue while culture medium was added on days 1, 2, 4, 7, and 9. Control tissues were treated with the 10 μl of corresponding vehicle only. On Day 11, tissues were collected and homogenized in a buffer containing 1% SDS, 50 mM EDTA, and 10 mM Tris, pH 6.8. To each homogenate, protease K (5 mg/ml) was added and incubated overnight at 45° C. Additional protease K was added and incubated for 4 hours at 45° C., followed by the addition of 0.5M sodium carbonate and 30% H2O2 and incubation at 80° C. for 30 minutes. The samples were cooled down to room temperature, and extracted with chloroform/methanol (2:1). After centrifugation at 10,000 g for 10 minutes, absorbance of the top phase was measured at 450 nm. Percent change in melanin levels in treated tissue was calculated relative to control. The average percent change in melanin relative to control of the three tissues is reported in the Table 4 in accordance with the scale: 0: <7% decrease in pigmentation level; +: between 8-14% decrease; ++: between 15-20% decrease; +++: between 21-30% decrease; ++++: >31% decrease; C=cytotoxic

[2] = test system: Human Epidermal Melanocytes, neonatal, darkly pigmented donor (HEMn-DP); test: Human primary melanocyte pigmentation assay (HEMn-DP); assay type: cell-based; conditions: 5 days, normalized to cell viability
Description: The effects of various test compounds on melanin productions were determined by performing assays using Human Epidermal Melanocytes, neonatal, darkly pigmented donor (HEMn-DP). The HEMn-DP cells were seeded (Invitrogen; cat. #: C-202-5C) into 6-well tissue culture-treated plates (BD Falcon) and treated with test actives or controls in Medium 254 (Invitrogen; cat. #: M-254-500) supplemented with 1% HMSG (Invitrogen; cat. #: S-002-5) and 1% P/S. The cells were examined for their ability to modulate pigment formation. […] Tests were performed in triplicates each. Following the treatment period (5 days), supernatants were aspirated. The melanin was extracted with 0.5 ml of 2N NaOH for 30 minutes at 80° C. The level of melanin synthesized within the cells was quantified by reading the absorbance at 405 nm using a standard microplate reader (Tecan Group Ltd.).
The cell viability was determined using the MTT conversion method. The MTT conversion method measures the reduction of the MTT dye from a yellow colored, water-soluble, tetrazolium salt to a bluish-purple colored insoluble formazan precipitate by NAD(P)H-dependent microsomal dehydrogenase enzymes, which only function in viable cells. The intensity of the blue color is indicative of cell viability. […] The cells were then exposed to MTT dye solution (1 mg/ml) for two to three hours. Formazan material was solubilized with reagent alcohol (95% ethanol: 5% isopropanol) and shaken on an orbital shaker for 15-30 minutes. MTT dye uptake and conversion by viable cells were determined by measuring the extracted formazan at 570 nm using a microplate reader. Total pigmentation was calculated and normalized to cell viability values. The average percent change in melanin relative to control of the triplicates from the Human Primary Melanocyte Pigmentation Assay (HEMn-DP Pigmentation) is reported in the Table 3 in accordance with the scale: 0: <10% decrease in pigmentation level; +: between 11-30% decrease; ++: between 31-50% decrease; +++: between 51-70% decrease; ++++: >71% decrease; C=cytotoxic.

Mushroom tyrosinase = Mushroom tyrosinase assay; assay type: biochemical; conditions: L-Tyrosine substrate, 25° C., 30 min
Description: Mushroom tyrosinase and L-Tyrosine were obtained from Sigma-Aldrich, Inc. (St. Louis, Mo.). The enzyme activity was measured in buffer containing 100 mM phosphate buffer pH 6.8, 5% absolute ethanol, 2 micrograms/milliliter mushroom tyrosinase, and 0.2 mg/ml L-Tyrosine. The reaction (conversion of L-Tyrosine to DOPAchrome) was conducted in triplicates at 25° C. for 30 min, and absorbance was then measured at 492 nm. Kojic Acid was used as a positive control inhibitor in these assays. Percent change in tyrosinase activity relative to vehicle control was calculated.

Row | Compound | B16 Assay Pigmentation Decrease (percent change in melanin compared to DMSO vehicle control) (B16 mouse melanoma cells; concentration 0.0001%) | B16 Assay Pigmentation Decrease (percent change in melanin compared to DMSO vehicle control) (B16 mouse melanoma cells; concentration 0.001%) | 3D Tissue Pigmentation Assay (change in melanin compared to vehicle control) ([1]; concentration 0.05%) | 3D Tissue Pigmentation Assay (change in melanin compared to vehicle control) ([1]; concentration 0.1%) | Human primary melanocyte pigmentation assay (change in melanin compared to DMSO vehicle control) ([2]; concentration 0.0001%) | Human primary melanocyte pigmentation assay (change in melanin compared to DMSO vehicle control) ([2]; concentration 0.001%) | Tyrosinase Inhibition (percent change in tyrosinase activity compared to DMSO vehicle control) (Mushroom tyrosinase; concentration 0.001%) | Tyrosinase Inhibition (percent change in tyrosinase activity compared to DMSO vehicle control) (Mushroom tyrosinase; concentration 0.01%)
1 | C/C(=N/NC(=S)NCC1CCCO1)c1ccc2c(c1)OCO2 (centres unmarked) [AV1221] | ++ (31-50% decrease) | ++++ (>71% decrease) | +++ (between 21-30% decrease) | ++ (between 15-20% decrease) | + (between 11-30% decrease) | ++++ (>71% decrease) | – | –
2 | C/C(=N/NC(=S)NC(C)C)c1ccc2c(c1)OCO2 [AV2043] | ++ (31-50% decrease) | – | +++ (between 21-30% decrease) | +++ (between 21-30% decrease) | + (between 11-30% decrease) | ++ (between 31-50% decrease) | – | –
3 | Cc1ccc(/C=N/NC(=S)NCC2CCCO2)s1 (centres unmarked) [AV3793] | + (between 20-30% decrease) | +++ (between 51-70% decrease) | ++ (between 15-20% decrease) | +++ (between 21-30% decrease) | 0 (<10% decrease in pigmentation level) | +++ (between 51-70% decrease) | – | –
4 | Oc1ccc(C=NNC(=S)NCC2CCCO2)c(O)c1 (centres unmarked) [AV6989] | −79% | – | – | – | – | – | −36% | −75%
